This passage reports IC50 and fraction unbound results from patent US20250019385A1, “SPIROCYCLIC ANNULATED 2-AMINO-3-CYANO THIOPHENES AND DERIVATIVES FOR THE TREATMENT OF CANCER” (Boehringer Ingelheim International GmbH, priority 2023, published 2025).

Data set [1] addresses KRAS (G12C)::SOS1 protein-protein interaction (Homo sapiens (Human), UniProt P01116, C118S/C51S/C80L/G12C). The data set can be described thus: KRAS::SOS1 AlphaScreen binding assay (KRAS G12C). To be noted: GDP. From the text: This assay can be used to examine the potency with which compounds according to the invention binding to (mutated) KRAS inhibit the protein-protein interaction between SOS1 and (mutated) KRAS e.g. KRAS G12C, KRAS G12D. […] Low IC50 values in this assay setting are indicative of strong inhibition of protein-protein interaction between SOS1 and KRAS:
These assays measure the inhibitory effect of compounds on KRAS mutant protein-protein interactions using the Alpha Screen technology by Perkin Elmer.
The following (mutant) enzyme forms of KRAS and interacting proteins are used in these assays at the given concentrations:
KRAS (G12C) 1-169, N-terminal 6His-tag for purification, cleaved off, C-terminal avi-tag, biotinylated, mutations: C51S, C80L, C118S (in house); final assay concentration 7.5 nM and SOS1 564-1049, N-terminal 229 GST-tag, TEV cleavage site (Viva Biotech Ltd); final assay concentration 5 nM;
Test compounds dissolved in DMSO are dispensed onto assay plates (Proxiplate 384 PLUS, white, PerkinElmer; 6008289) using an Access Labcyte Workstation with the Labcyte Echo 55x. For the chosen highest assay concentration of 100 μM, 150 nL of compound solution are transferred from a 10 mM DMSO compound stock solution. A series of eleven fivefold dilutions per compound are transferred to the assay plate, compound dilutions are tested in duplicates. DMSO are added as backfill to a total volume of 150 nL.
The assays run on a fully automated robotic system in a darkened room below 100 Lux. To 150 nl of compound dilution 10 μl of a mix including KRAS mutant protein, SOS1 (final assay concentrations see above) and GDP nucleotide (Sigma G7127; final assay concentration 10 μM) in assay buffer (1×PBS, 0.1% BSA, 0.05% Tween 20) are added into columns 1-24.
After 30 minutes incubation time 5 μl of Alpha Screen bead mix in assay buffer are added into columns 1-23. Bead mix consists of AlphaLISA Glutathione Acceptor Beads (PerkinElmer, Cat No AL109) and AlphaScreen Streptavidin Donor Beads (PerkinElmer Cat No 6760002) in assay buffer at a final assay concentration of 10 μg/mL each.
Plates are kept at room temperature in a darkened incubator. After an additional 60 minutes incubation time the signal is measured in a PerkinElmer Envision HTS Multilabel Reader using the AlphaScreen specs from PerkinElmer.
Each plate contains up to 16 wells of a negative control depending on the dilution procedure (platewise or serial) (DMSO instead of test compound; with KRAS mutant::SOS1 GOP mix and bead mix; column 23) and 16 wells of a positive control (DMSO instead of test compound; with KRAS mutant::SOS1 GOP mix w/o bead mix; column 24).
As internal control known inhibitors of KRAS mutant::SOS1 interaction can be measured on each compound plate.
IC50 values are calculated and analyzed with Boehringer Ingelheim's MEGALAB C50 application using a 4 parametric logistic model.
Tables of example compounds disclosed herein contain IC50 values determined using the above assays (see Table 43).
In general terms: In Alpha technology, singlet oxygen from a donor bead excites a nearby acceptor bead.

The next data set concerns AsPC-1 cells. The data set can be described thus: AsPC-1 CTG proliferation assay (120 h) (pancreatic cancer, G12D). Type of data set: cell-based. To be noted: Homo sapiens, ASPC1. The method, then: (§1) AsPC-1 cells (ATCC CRL-1682) are dispensed into black 384-well plates, flat and clear bottom (Greiner, PNr. 781091) at a density of 500 cells per well in 60 μl RPMI ATCC-Formulation (PAN P04-18047)+10% FCS (fetal calf serum, HyClone, SH30084.03). Cells are incubated overnight at 37° C. in a humidified tissue culture incubator at 5% CO2. Compounds (10 mM stock in DMSO) are added at logarithmic dose series using the ECHO acoustic liquid handler system (Beckman Coulter), normalizing for added DMSO and including DMSO controls. All compound treatments are performed in technical duplicates. For the TO time point measurement, untreated cells are analyzed at the time of compound addition. Plates are incubated for 120 h, and cell viability is measured using CellTiter-Glo luminescent cell viability reagent (Promega product code G7570). Viability (stated as percent of control) is defined as relative luminescence units RLU of each well divided by the RLU of cells in DMSO controls. IC50 values are determined from viability measurements by non-linear regression using a four-parameter model.
(§2) IC50 values of representative compounds according to the invention measured with these assays in the indicated cell lines are presented in Table 46.

For a further data set, the system named is MKN1 cells. The data set can be described thus: MKN1 CTG proliferation assay (120 h) (gastric cancer, wt amplified). To be noted: Homo sapiens, MKN-1. Type of data set: cell-based. The method, then: as §1, with “MKN1” for “AsPC-1”, “(JCRB0252)” for “(ATCC CRL-1682)”, “200” for “500”, “RPMI-1640” for “RPMI”, “(Gibco #A10491)+10%” for “(PAN P04-18047)+10%”
as §2

Data set [2] can be described thus: Plasma protein binding assay (PPB), equilibrium dialysis. The class given is in vitro ADME. To be noted: bovine, 10% FCS in PBS, read-out: PPB 10% FCS (% fu). The procedure: Binding of test compounds to plasma was determined using equilibrium dialysis (ED) and quantitative mass spectrometry interfaced with liquid chromatography (LC-MS). In brief, ED was performed with dialysis devices consisting of two chambers separated by a semipermeable membrane with a molecular weight cut-off of 5-10 kg/mol. One chamber was filled with 10% FCS in PBS containing 1-10 μmol/L test compound and the other chamber was filled with phosphate-buffer saline (PBS) with or without dextran. The dialysis chamber was incubated for 3-5 hours at 37° C. After incubation, protein was precipitated from aliquots of each chamber and the concentration of test compound in the supernatant of the plasma-containing compartment (cserum) and of the buffer-containing compartment (cbuffer) was determined by LC-MS. The fraction of unbound test compound (not bound to plasma) (f) was calculated according to the following equation: […]
On the technique in general: In equilibrium dialysis only unbound substance equilibrates across the membrane.

KRAS (G12C)::SOS1 protein-protein interaction, sequence (P01116 other isoform, or with tags, fused parts or gaps G12C/C51S/C80L/C118S): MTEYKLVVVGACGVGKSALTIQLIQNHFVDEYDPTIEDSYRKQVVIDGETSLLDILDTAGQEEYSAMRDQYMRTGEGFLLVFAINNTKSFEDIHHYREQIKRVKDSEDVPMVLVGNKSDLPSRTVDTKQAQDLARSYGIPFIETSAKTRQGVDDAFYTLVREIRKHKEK

Turning to `CO[C@@H]1C[C@@H]([C@H](C)Oc2nc(-c3onc4c3CCC[C@@]43CCCc4sc(N)c(C#N)c43)nc3c2n(C)c(=O)n3[C@@H]2CCOC2)N(C)C1` [I-3], the IC50 (as a rule, the concentration that gives 50% inhibition) in data set [1] came out at 1 nM; in the data set with AsPC-1 cells, 438 nM; with MKN1 cells it was 22 nM. In addition, the fraction unbound in data set [2] was 0.11.

On to `C[C@H](Oc1nc(-c2onc3c2CCC[C@@]32CCCc3sc(N)c(C#N)c32)nc2c1n(C)c(=O)n2[C@@H]1CCOC1)[C@@H]1[C@H](F)CCN1C` [I-4], for which the IC50 in data set [1] was found to be 2 nM; in the data set with AsPC-1 cells, 2740 nM; in the data set on MKN1 cells it was 509 nM. Further, the fraction unbound in data set [2] came to 0.13.

Turning to `C[C@H](Oc1nc(-c2onc3c2CCC[C@@]32CCCc3sc(N)c(C#N)c32)nc2c1n(C)c(=O)n2[C@@H]1CCOC1)[C@@H]1[C@@H](F)CCN1C` [I-5], the results for the IC50 (in data set [1]; in the data set on AsPC-1 cells; in the data set with MKN1 cells) were 1 nM, 224 nM and 113 nM, respectively. In addition, the fraction unbound in data set [2] came to 0.03.

As for `CO[C@H]1CCN(C)[C@@H]1[C@H](C)Oc1nc(-c2onc3c2CCC[C@@]32CCCc3sc(N)c(C#N)c32)nc2c1n(C)c(=O)n2[C@@H]1CCCOC1` [I-6], the values for the IC50 (in data set [1]; in the data set with AsPC-1 cells; in the data set with MKN1 cells) were 2 nM, 607 nM and 90 nM, respectively. Also, the fraction unbound in data set [2] came to 0.17.

Regarding `COCCn1c(=O)n(C)c2c(O[C@@H](C)[C@@H]3CCCN3C)nc(-c3onc4c3CCC[C@@]43CCCc4sc(N)c(C#N)c43)nc21` [I-7], the IC50 in data set [1] amounted to 3 nM; in the data set with AsPC-1 cells it was 4830 nM; with MKN1 cells, 373 nM. Moreover, the fraction unbound in data set [2] came to 0.24.

Consider `C[C@H](Oc1nc(-c2onc3c2CCC[C@@]32CCCc3sc(N)c(C#N)c32)nc2c1[nH]c(=O)n2[C@@H]1CCOC1)[C@@H]1CCCN1C` [I-8], for which the figures for the IC50 (in data set [1]; in the data set with AsPC-1 cells; with MKN1 cells) were 1 nM, 1260 nM and 41 nM, respectively. Further, the fraction unbound in data set [2] is 0.4.

Turning to `C[C@H](Oc1nc(-c2onc3c2CCC[C@@]32CCCc3sc(N)c(C#N)c32)nc2c1n(C)c(=O)n2[C@H]1CCOC1)[C@@H]1CCCN1C` [I-9], the IC50 in data set [1] is 2 nM; in the data set with AsPC-1 cells it was 751 nM; in the data set with MKN1 cells it was 135 nM. Also, the fraction unbound in data set [2] was 0.25.

As to `C[C@H](Oc1nc(-c2onc3c2CCC[C@@]32CCCc3sc(N)c(C#N)c32)nc2c1n(C)c(=O)n2C1CCOCC1)[C@@H]1CCCN1C` [I-10], the IC50 in data set [1] worked out at 2 nM; with AsPC-1 cells it was 3470 nM; in the data set on MKN1 cells it was 109 nM. Moreover, in data set [2], the fraction unbound worked out at 0.24.

Take `C[C@H](Oc1nc(-c2onc3c2CCC[C@@]32CCCc3sc(N)c(C#N)c32)nc2c1n(C)c(=O)n2[C@H]1CCCOC1)[C@@H]1CCCN1C` [I-11]: the half-inhibitory concentration (IC50) in data set [1] is 4 nM; in the data set with AsPC-1 cells it was 4480 nM; in the data set with MKN1 cells, 334 nM. The fraction unbound in data set [2] was found to be 0.06.

As to `C[C@H](Oc1nc(-c2onc3c2CCC[C@@]32CCCc3sc(N)c(C#N)c32)nc2c1n(C)c(=O)n2[C@@H]1CCCOC1)[C@@H]1CCCN1C` [I-12], the IC50 amounted to 1 nM in data set [1], 326 nM with AsPC-1 cells and 10 nM in the data set on MKN1 cells. Besides, in data set [2], the fraction unbound was 0.18.

Regarding `C[C@H](Oc1nc(-c2onc3c2CCC[C@@]32CCCc3sc(N)c(C#N)c32)nc2c1[nH]c(=O)n2[C@@H]1CCCOC1)[C@@H]1CCCN1C` [I-13], the IC50 in data set [1] turned out to be 2 nM; in the data set on AsPC-1 cells it was 2370 nM; with MKN1 cells, 11 nM. Also, the fraction unbound in data set [2] came out at 0.18.

Take `CO[C@@H]1C[C@@H]([C@H](C)Oc2nc(-c3onc4c3CCC[C@@]43CCCc4sc(N)c(C#N)c43)nc3c2n(C)c(=O)n3[C@@H]2CCCOC2)N(C)C1` [I-14]: the half-inhibitory concentration (IC50) in data set [1] came out at 2 nM; in the data set with AsPC-1 cells, 767 nM; with MKN1 cells it was 48 nM. The fraction unbound in data set [2] was 0.15.

`C[C@H](Oc1nc(-c2onc3c2CCC[C@@]32CCCc3sc(N)c(C#N)c32)nc2c1n(C)c(=O)n2C12COC(C1)C2)[C@@H]1CCCN1C` [I-15]: the IC50 in data set [1] was 2 nM; in the data set on AsPC-1 cells, 1630 nM; in the data set with MKN1 cells, 47 nM. Also, the fraction unbound in data set [2] turned out to be 0.13.
